Values of other authors in patent US7968712B2, “Process for the resolution of zopiclone and intermediate compounds” (Esteve Quimica, S.A., priority 2007, dated 2011).

Experiments:
[1] = compared with racemic zopiclone
[2] = compared with racemic zopiclone; remark: listed apart in the source

| Compound | toxicity relative to the racemate [1] | activity relative to the racemate [2] |
| --- | --- | --- |
| CN1CCN(C(=O)O[C@H]2c3nccnc3C(=O)N2c2ccc(Cl)cn2)CC1 [dextrorotatory enantiomer, eszopiclone] | lower toxicity than that of the racemate |  |
| CN1CCN(C(=O)O[C@@H]2c3nccnc3C(=O)N2c2ccc(Cl)cn2)CC1 (single isomer, unassigned) [laevorotatory isomer] | more toxic than the racemate | almost inactive |
